Assay results published in US20120165319A1, “INHIBITORS OF INTERLEUKIN-1 BETA CONVERTING ENZYME” (VERTEX PHARMACEUTICALS INCORPORATED, priority 1995, published 2012).
Like-named read-outs stand apart in the source and are kept apart here.

Legend:
[1] = system: IL-1β, human whole blood; assay: Whole blood assay for IL-1β production; format: cell-based; conditions: read-out: Whole human blood IC50
In short: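 Human whole blood collected on Na2EDTA was treated with serially diluted compound in saline and then stimulated with LPS at 5.0 ng/ml final, for 16-18 h at 30 °C, in duplicate or triplicate. Plasma IL-1β was measured by ELISA at 1:200 dilution.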

[2] = system: IL-1β, human peripheral blood mononuclear cells (PBMC); assay: PBMC cell assay: IL-1β assay with human PBMC or enriched adherent mononuclear cells, LPS-stimulated; format: cell-based
In short: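 Buffy-coat human PBMC at 6×10^6 cells/ml, or adherent monocytes enriched by 1 h adherence (2.5−3.0×10^5 cells/well), are given 5–6 compound dilutions bracketing the ICE Ki (final DMSO 0.1%) plus LPS at a final 5 ng/ml. They are incubated 16–18 hr at 37 °C, 5% CO2, and supernatant mature IL-1β is measured by ELISA, with duplicate cultures and duplicate ELISAs.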

[3] = molecular target: T1, ICE (Homo sapiens, UniProt P29466); assay: Enzyme assay with UV-visible substrate (visible ICE assay, Succinyl-Tyr-Val-Ala-Asp-pNitroanilide); format: biochemical
T1 sequence (P29466 120-297 limits assumed): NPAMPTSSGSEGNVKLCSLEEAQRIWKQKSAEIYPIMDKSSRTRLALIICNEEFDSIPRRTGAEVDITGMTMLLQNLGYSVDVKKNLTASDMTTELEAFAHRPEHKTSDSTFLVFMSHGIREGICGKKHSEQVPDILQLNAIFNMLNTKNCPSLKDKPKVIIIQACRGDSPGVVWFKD
T1 sequence (P29466 317-404 limits assumed): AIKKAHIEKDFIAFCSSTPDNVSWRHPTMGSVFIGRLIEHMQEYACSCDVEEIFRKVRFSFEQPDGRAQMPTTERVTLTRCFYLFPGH
In short: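 ICE preincubated with inhibitor in DMSO for 15 min at room temperature, then Suc-Tyr-Val-Ala-Asp-pNA added. pNA release read at 405-603 nm for 20 min at 37 °C, rate from linear fit in mOD/min. Ki and inhibition mode from fits of rates at varying inhibitor concentrations to standard kinetic equations.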

[4] = * = values obtained upon reassay
[5] = Homo sapiens, * = values obtained upon reassay
[6] = Homo sapiens, PBMC, * = values obtained upon reassay

SMILES	IC50 ([1]; Homo sapiens, Table 17) [nM]	IC50 ([2]; Homo sapiens, PBMC, Table 17) [nM]	Ki ([3]; Table 17) [nM]	IC50 [1, 4] [nM]	IC50 [1, 5] [nM]	IC50 [2, 6] [nM]	Ki ([3]; Table 5) [nM]	IC50 [2, 4] [nM]
COc1c(C)cc(C(=O)N[C@H]2CN(C(C)=O)c3ccccc3N(CC(=O)N[C@H](C=O)CC(=O)O)C2=O)cc1C [Compound 684, (3S)-3-[(3S)-2-Oxo-3-(3,5-dimethyl-4-methoxybenzoyl)amino-5-acetyl-2,3,4,5-tetrahydro-1H-1,5-benzodiazepine-1-acetylamino]-4-oxo-butyric acid]	2800	5000	15					
O=C[C@H](CC(=O)O)NC(=O)[C@@H]1CCCN2C(=O)CC[C@H](NC(=O)c3cccc4cccnc34)C(=O)N12 [Compound 439]				3400	3200	2800	3.7	
O=C[C@H](CC(=O)O)NC(=O)[C@@H]1CCCN2C(=O)CC[C@H](NC(=O)c3ccc4ccccc4n3)C(=O)N12 [Compound 411]					1900	540	0.9	
Cc1c(O)cccc1C(=O)N[C@H]1CCC(=O)N2CCC[C@@H](C(=O)N[C@H](C=O)CC(=O)O)N2C1=O [Compound 476]					2500	1600	7	
Nc1ccc(C(=O)N[C@H]2CN(C(=O)CO)c3ccccc3N(CC(=O)N[C@H](C=O)CC(=O)O)C2=O)cc1Cl [Compound 686]	9000	4000	4					
Nc1c(Cl)cc(C(=O)N[C@H]2CCC(=O)N3CCC[C@@H](C(=O)N[C@H](C=O)CC(=O)O)N3C2=O)cc1Cl [Compound 482]				260	380	340	< 0.2	
COc1ccccc1C(=O)N[C@H]1CCC(=O)N2CCC[C@@H](C(=O)N[C@H](C=O)CC(=O)O)N2C1=O [Compound 405]					2100	1700	6.5	
COc1ccccc1C(=O)C(=O)N[C@H]1CN(C(C)=O)c2ccccc2N(CC(=O)N[C@H](C=O)CC(=O)O)C1=O [Compound 705]	3200	2300	5					
COc1ccc(C(=O)N[C@H]2CCC(=O)N3CCC[C@@H](C(=O)N[C@H](C=O)CC(=O)O)N3C2=O)cc1F [Compound 493]				850	800	1200	25	
Cc1nc(-c2ccc(C(F)(F)F)cc2)sc1C(=O)N[C@H]1CCC(=O)N2CCC[C@@H](C(=O)N[C@H](C=O)CC(=O)O)N2C1=O [Compound 468]					2500	850	4.5	
CC(=O)N1C[C@H](NC(=O)C(=O)c2c[nH]c3ccccc23)C(=O)N(CC(=O)N[C@H](C=O)CC(=O)O)c2ccccc21 [Compound 703]	20000	1400	5					
CC(=O)N1C[C@H](NC(=O)OCc2ccccc2)C(=O)N(CC(=O)N[C@H](C=O)CC(=O)O)c2ccccc21 [Compound 633]					20000	5750	92	
COCC(=O)N1C[C@H](NCc2ccc3ccccc3c2)C(=O)N(CC(=O)N[C@H](C=O)CC(=O)O)c2ccccc21 [Compound 640, (3S)-3-[(3S)-2-Oxo-3-(2-naphthylmethylene)amino-5-methoxyacetyl-2,3,4,5-tetrahydro-1H-1,5-benzodiazepine-1-acetylamino]-4-oxo-butyric acid]	3900	2250	155					
CC(=O)N1C[C@H](NC(=O)C(=O)c2ccccc2)C(=O)N(CC(=O)N[C@H](C=O)CC(=O)O)c2ccccc21 [Compound 635]					4000	1900	55	3400
O=C(O)CC(NC(=O)[C@@H]1CCCN2C(=O)CC[C@H](NC(=O)c3ccccc3)C(=O)N12)C(=O)COCc1ccccc1Cl (some centres unmarked) [Compound 227e]					550	234	7	
COc1cc(C(=O)N[C@H]2CCC(=O)N3CCC[C@@H](C(=O)N[C@H](C=O)CC(=O)O)N3C2=O)nc2ccccc12 [Compound 437]					5000	1800	12	
CC(=O)Nc1c(Cl)cc(C(=O)N[C@H]2CN(C(=O)CO)c3ccccc3N(CC(=O)N[C@H](C=O)CC(=O)O)C2=O)cc1Cl [Compound 915]	1900	> 8000	11.5					
COc1c(C)cc(C(=O)N[C@H]2CN(C(=O)CO)c3ccccc3N(CC(=O)N[C@H](C=O)CC(=O)O)C2=O)cc1C [Compound 694, (3S)-3-[(3S)-2-Oxo-3-(3,5-dimethyl-4-methoxybenzoyl)amino-5-hydroxyacetyl-2,3,4,5-tetrahydro-1H-1,5-benzodiazepine-1-acetylamino-]4-oxo-butyric acid]	2100	2600	3					
Cc1ccc(Cl)cc1C(=O)N[C@H]1CCC(=O)N2CCC[C@@H](C(=O)N[C@H](C=O)CC(=O)O)N2C1=O [Compound 466]					600	1400	0.8	
O=C[C@H](CC(=O)O)NC(=O)CN1C(=O)[C@@H](NC(=O)c2cccc3ccccc23)CN(C=O)c2ccccc21 [Compound 653, (3S)-3-[(3S)-2-Oxo-3-(1-naphthoyl)amino-5-formyl-2,3,4,5-tetrahydro-1H-1,5-benzodiazepine-1-acetylamino]-4-oxo-butyric acid]	6000	2300	30					
O=C[C@H](CC(=O)O)NC(=O)CN1C(=O)[C@@H](NC(=O)c2ccc(O)cc2)CN(C(=O)CO)c2ccccc21 [Compound 691b, (3S)-3-[(3S)-2-Oxo-3-(4-hydroxybenzoyl)amino-5-hydroxyacetyl-2,3,4,5-tetrahydro-1H-1,5-benzodiazepine-1-acetylamino]-4-oxo-butyric acid]	1400	1900	11.5					
COCC(=O)N1C[C@H](NC(=O)C(=O)c2ccccc2)C(=O)N(CC(=O)N[C@H](C=O)CC(=O)O)c2ccccc21 [Compound 642, (3S)-3-[(3S)-2-Oxo-3-benzoylformylamino-5-methoxyacetyl-2,3,4,5-tetrahydro-1H-1,5-benzodiazepine-1-acetylamino]-4-oxo-butyric acid]	2900	8000	35					
CN(C)c1ccc(C(=O)N[C@H]2CCC(=O)N3CCC[C@@H](C(=O)N[C@H](C=O)CC(=O)O)N3C2=O)c2ccccc12 [Compound 441]					4500	2500	1	
COc1ccc(C(=O)N[C@H]2CCC(=O)N3CCC[C@@H](C(=O)N[C@H](C=O)CC(=O)O)N3C2=O)cc1Cl [Compound 497]				700	350	740	3.5	
CS(=O)(=O)Nc1ccc(C(=O)N[C@H]2CCC(=O)N3CCC[C@@H](C(=O)N[C@H](C=O)CC(=O)O)N3C2=O)cc1 [Compound 447]					1500	2500	5.8	
Cc1c(Cl)cccc1C(=O)N[C@H]1CCC(=O)N2CCC[C@@H](C(=O)N[C@H](C=O)CC(=O)O)N2C1=O [Compound 465]					800	1000	3	
CC(=O)N1C[C@H](NC(=O)C(=O)c2c(C)cc(C)cc2C)C(=O)N(CC(=O)N[C@H](C=O)CC(=O)O)c2ccccc21 [Compound 709]	14000	2100	10					
O=C[C@H](CC(=O)O)NC(=O)[C@@H]1CCCN2C(=O)CC[C@H](NC(=O)c3ccc4nn[nH]c4c3)C(=O)N12 [Compound 432]					2000	560	1.6	
COc1cccc(OC)c1C(=O)C(=O)N[C@H]1CN(C(=O)CO)c2ccccc2N(CC(=O)N[C@H](C=O)CC(=O)O)C1=O [Compound 678]	2200	2700	5					
